Measurements: ChEMBL document CHEMBL1201862, “PubChem BioAssay data set” (2004)
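Briefly, cells in 96-well plates were exposed to five compound concentrations for 48 h, and endpoints were estimated by linear interpolation. GI50 marks 50% less growth.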 Active and inactive are the calls of the source. Cut-off read from the data, not from the text of the source: active = GI50 up to about 1.1 µM and inactive = higher.

Legend:
Assay in all cases: DTP human tumour cell line panel, 48 h
LXFL 529 = system: LXFL 529
SNB-78 = system: SNB-78
DMS-273 = system: DMS-273
DLD-1 = system: DLD-1
RXF 631 = system: RXF 631
HOP-18 = system: HOP-18
M19-MEL = system: M19-MEL
KM-20L2 = system: KM-20L2
XF498 = system: XF498

Measured: GI50

COC(=O)c1cc(Br)c(Br)n1C
inactive: LXFL 529 > 100 µM | SNB-78 > 100 µM | DMS-273 > 100 µM | DLD-1 81.8 µM | RXF 631 > 100 µM | HOP-18 > 100 µM | M19-MEL > 100 µM | KM-20L2 > 100 µM | XF498 > 100 µM
